# Results as given in US20080206175A1, “Composition for Skin Whitening and Wrinkle Improvement Comprising Vaccinium Uliginosum Extract and Method for Preparation Thereof” (priority 2005, published 2008).
# Experiments:
# B16 melanoma F10 cells [1] = experiment: Inhibitory effect on melanin production in B16 melanoma F10 cells; type: cell-based; conditions: 10 μM, 72 hours
# Procedure: B 16 melanoma F 10 cells were seeded into each well of a 24-well plate at a cell concentration of 10^4 cells/well. After 17 hours, the adhesion of the cells was confirmed and the medium was removed. […] The plate was incubated in a CO2 incubator for 72 hours and then the medium was removed. Next, 2 ml of NaOH was added into each well of the plate, followed by standing at 60° C. for 30 minutes. Then, the cell solution was measured for absorbance at 450 nm. The concentration of melanin was calculated compared to the melanin standard curve.
# B16 melanoma F10 cells [2] = experiment: Inhibitory effect on total melanin production upon ultraviolet irradiation, B16 melanoma F10 cells; type: cell-based
smiles,measurement,setting,value
O=c1cc(CO)occ1O [kojic acid],production of melanin,B16 melanoma F10 cells [1],16.54 µg/mL
same,melanin production upon ultraviolet irradiation,B16 melanoma F10 cells [2]; 0.2 μM,22.72 µg/mL
same,melanin production upon ultraviolet irradiation,B16 melanoma F10 cells [2]; 2 μM,19.22 µg/mL
